# Assay results reported in ChEMBL document CHEMBL5729401, “Inhibitors of Rho associated coiled-coil containing protein kinase” (2022).
# Target: Rho-associated protein kinase 2 (Homo sapiens, UniProt O75116)
# Assay: Z-lyte assay: Compounds activities were measured by Z'-lyte kinase kit (ThermoFisher Scientific). The percent inhibition rate was calculated by normalizing the kinase activity value obtained with 1 μM compound treatment against DMSO control value. IC50s were calculated using the GraphPad Prism software with kinase activities data that were collected from 9 points serial dilution of compounds treatment.
# Sequence of Rho-associated protein kinase 2 (O75116 whole entry): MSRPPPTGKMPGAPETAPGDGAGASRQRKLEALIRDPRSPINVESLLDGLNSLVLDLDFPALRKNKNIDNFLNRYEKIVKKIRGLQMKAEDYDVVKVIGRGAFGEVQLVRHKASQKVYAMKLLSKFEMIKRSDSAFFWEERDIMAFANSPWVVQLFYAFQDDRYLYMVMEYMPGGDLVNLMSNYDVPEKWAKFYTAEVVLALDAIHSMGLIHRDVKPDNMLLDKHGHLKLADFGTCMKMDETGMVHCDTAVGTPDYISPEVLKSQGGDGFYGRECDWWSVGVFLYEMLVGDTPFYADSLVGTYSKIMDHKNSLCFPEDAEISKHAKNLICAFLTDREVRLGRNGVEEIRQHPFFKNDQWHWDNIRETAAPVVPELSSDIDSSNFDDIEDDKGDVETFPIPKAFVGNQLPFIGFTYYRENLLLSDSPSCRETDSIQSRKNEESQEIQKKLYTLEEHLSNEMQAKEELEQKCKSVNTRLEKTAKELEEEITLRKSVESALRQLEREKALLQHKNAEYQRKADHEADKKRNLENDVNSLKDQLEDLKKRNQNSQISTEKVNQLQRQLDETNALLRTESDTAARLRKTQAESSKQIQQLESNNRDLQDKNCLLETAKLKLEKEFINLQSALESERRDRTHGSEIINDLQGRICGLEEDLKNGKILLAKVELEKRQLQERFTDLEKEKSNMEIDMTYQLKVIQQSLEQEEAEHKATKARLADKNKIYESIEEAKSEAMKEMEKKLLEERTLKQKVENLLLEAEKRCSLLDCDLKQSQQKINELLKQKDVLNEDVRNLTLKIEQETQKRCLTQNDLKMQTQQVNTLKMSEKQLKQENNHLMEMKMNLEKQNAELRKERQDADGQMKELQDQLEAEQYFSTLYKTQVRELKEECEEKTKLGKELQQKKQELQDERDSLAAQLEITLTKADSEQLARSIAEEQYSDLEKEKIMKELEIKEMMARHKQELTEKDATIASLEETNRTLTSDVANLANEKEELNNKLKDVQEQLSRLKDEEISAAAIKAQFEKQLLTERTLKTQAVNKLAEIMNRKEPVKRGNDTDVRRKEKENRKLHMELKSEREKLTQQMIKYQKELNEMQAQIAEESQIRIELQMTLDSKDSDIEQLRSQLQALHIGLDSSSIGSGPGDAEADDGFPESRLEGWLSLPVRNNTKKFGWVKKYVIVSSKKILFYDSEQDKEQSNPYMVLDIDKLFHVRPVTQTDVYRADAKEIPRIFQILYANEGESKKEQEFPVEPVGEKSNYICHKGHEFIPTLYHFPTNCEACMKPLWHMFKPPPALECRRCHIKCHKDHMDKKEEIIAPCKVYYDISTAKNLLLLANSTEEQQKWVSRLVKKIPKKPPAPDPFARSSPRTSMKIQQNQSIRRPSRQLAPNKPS
smiles,measurement,value
CNC(C(=O)Nc1ccc(-c2cn[nH]c2)cc1)c1ccc(OC)c(F)c1 (stereo unspecified),IC50,21 nM
